Data on 30 compounds can be found in patent publication US9469615B2, “Quinoxalines and AZA-quinoxalines as CRTH2 receptor modulators” (Merck Sharp & Dohme Corp., priority 2010, dated 2016).

pKi: −log10 of the molar value.

In general, pKi refers to the Ki on a negative log10 scale, so that one unit is a factor of ten. The low end stands for a high Ki, the high end for a low Ki.

This assay addresses T1, hCRTH2 (Homo sapiens, UniProt Q9Y5Y4).
T1 construct: expressed in transfected cells; host or cells: HEK (human embryonic kidney) cells expressing hCRTH2; membrane preparation
T1 sequence (Q9Y5Y4 1-395): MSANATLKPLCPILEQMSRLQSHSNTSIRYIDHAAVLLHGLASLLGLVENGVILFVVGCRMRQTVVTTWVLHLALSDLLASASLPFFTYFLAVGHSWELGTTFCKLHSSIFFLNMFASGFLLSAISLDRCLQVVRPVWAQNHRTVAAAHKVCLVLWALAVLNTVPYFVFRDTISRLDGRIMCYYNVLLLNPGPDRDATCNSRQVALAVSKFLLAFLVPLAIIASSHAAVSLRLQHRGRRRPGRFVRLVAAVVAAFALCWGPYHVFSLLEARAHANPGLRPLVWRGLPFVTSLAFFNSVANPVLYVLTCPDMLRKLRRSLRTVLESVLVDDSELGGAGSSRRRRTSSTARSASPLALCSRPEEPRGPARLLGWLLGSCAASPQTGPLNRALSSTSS
In words: Radioligand binding assay ([3H]PGD2 competition, HEK-hCRTH2 membranes). An outline of the steps: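 Using membranes of an HEK line stably carrying hCRTH2, ligands were tested against [3H]PGD2 (3.0 nM) in pH 7.4 Tris buffer containing 2 mM MnCl2 and 1 mM EDTA. After one hour at room temperature, filters were washed cold and counted.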

Where [1] appears, read: [3H]PGD2 binding, rated A-E (Table A).

Regarding `CC(CCCc1nc2cc(C(=O)N3CC[C@H](c4ccccc4)C3)ccc2nc1-c1ccc(C(F)(F)F)cc1)C(=O)O` (stereo partly drawn) [18F, alpha-methyl-7-[(3(R)-phenyl-1-pyrrolidinyl)carbonyl]-3-[4-(trifluoromethyl)phenyl]-2-quinoxalinepentanoic acid], the pKi under setting [1] is 7.70 to 8.68.
Regarding `Cc1ccc(C)c(N2CCN(C(=O)c3ccc4nc(-c5ccc(Cl)cc5)c(CCCCC(=O)O)nc4c3)CC2)c1` [compound 629, 5-(3-(4-chlorophenyl)-7-(4-(2,5-dimethylphenyl)piperazine-l-carbonyl)quinoxalin-2-yl)pentanoic acid], the pKi ([3H]PGD2 competition, Table B) was 8.70 to 10.00.
Compound `O=C(O)CCCCc1nc2cc(C(=O)N3CCCCC3)ccc2nc1-c1ccccc1` [15BF, 5-[3-phenyl-7-(piperidin-1-ylcarbonyl)quinoxalin-2-yl] pentanoic acid] gave a pKi under setting [1] of 7.70 to 8.68.
Consider `CC(CCCc1nc2cc(C(=O)N[C@@H]3CCc4cc(F)ccc43)ccc2nc1-c1ccc(F)cc1)C(=O)O` (stereo partly drawn) [compound 457, 5-(7-(((R)-5-fluoro-2,3-dihydro-1H-inden-1-yl)carbamoyl)-3-(4-fluorophenyl)quinoxalin-2-yl)-2-methylpentanoic acid], for which, for the setting “[3H]PGD2 competition, Table B”, the pKi is 8.70 to 10.00.
Under setting [1], `CNC(=O)c1ccc2nc(-c3ccccc3)c(CCCCC(=O)O)nc2c1` [15BG, 5-[7-(methylcarbamoyl)-3-phenylquinoxalin-2-yl]pentanoic acid] showed a pKi of 7.70 to 8.68.
`C[C@H](CCc1nc2cc(C(=O)N3CC(c4cccc(F)c4)C3)ccc2nc1-c1ccccc1)CC(=O)O` [compound 281, (R)-5-(7-(3-(3-fluorophenyl)azetidine-1-carbonyl)-3-phenylquinoxalin-2-yl)-3-methylpentanoic acid] had a pKi ([3H]PGD2 competition, Table B) of 6.70 to 7.70.
For `Cc1nc(N2CCN(C(=O)c3ccc4nc(-c5ccc(Cl)cc5)c(CCCCC(=O)O)nc4c3)CC2)cn1C` [compound 700, 5-(3-(4-chlorophenyl)-7-(4-(1,2-dimethyl-1H-imidazol-4-yl)piperazine-1-carbonyl)quinoxalin-2-yl)pentanoic acid], where the note is “[3H]PGD2 competition, Table B”, the pKi is 6.70 to 7.70.
Regarding `C[C@@H](NC(=O)c1ccc2nc(-c3ccccc3)c(CCCCC(=O)O)nc2c1)c1ccc(Cl)cc1` [15AX, 5-(7-{[(1R)-1-(4-chlorophenyl)ethyl]carbamoyl}-3-phenyl-quinoxalin-2-yl)pentanoic acid], the pKi was 7.70 to 8.68 under setting [1] and 8.52 ([3H]PGD2 binding, values in text).
As for `O=C(O)CCCCc1nc2cc(C(=O)N3CCC4(CC3)OCc3ccccc34)ccc2nc1-c1ccc(Cl)cc1` [compound 633, 5-(3-(4-chlorophenyl)-7-(3H-spiro[isobenzofuran-1,4′-piperidin]-1′-ylcarbonyl)quinoxalin-2-yl)pentanoic acid], the pKi ([3H]PGD2 competition, Table B) was 8.70 to 10.00.
`O=C(O)CCCCc1nc2cc(C(=O)N[C@H]3CCCc4cc(Cl)ccc43)ccc2nc1-c1ccc(Cl)cc1` [compound 187, 3-(4-chlorophenyl)-7-[[(6-chloro-1,2,3,4-tetrahydro-1(S)-naphthalenyl)amino]carbonyl]-2-quinoxalinepentanoic acid]: under setting [1], the pKi is 7.70 to 8.68.
For `C[C@@H](CCc1nc2cc(C(=O)N3CC(c4cccc(F)c4)C3)ccc2nc1-c1ccccc1)CC(=O)O` [compound 290, (S)-5-(7-(3-(3-fluorophenyl)azetidine-1-carbonyl)-3-phenylquinoxalin-2-yl)-3-methylpentanoic acid], the pKi ([3H]PGD2 competition, Table B) is 7.70 to 8.68.
In the case of `O=C(O)CCCCc1nc2cc(C(=O)N[C@@H]3CCOc4cc(F)c(F)cc43)ccc2nc1-c1ccc(Cl)cc1` [compound 533, (R)-5-(3-(4-chlorophenyl)-7-((6,7-difluorochroman-4-yl)carbamoyl)quinoxalin-2-yl)pentanoic acid], the pKi ([3H]PGD2 competition, Table B) was 7.70 to 8.68.
The compound `CN1C(=O)c2ccccc2C12CCN(C(=O)c1ccc3nc(-c4ccc(Cl)cc4)c(CCCCC(=O)O)nc3c1)CC2` [compound 695, 5-(3-(4-chlorophenyl)-7-(2-methyl-3-oxospiro[isoindoline-1,4′-piperidin]-1′-ylcarbonyl)quinoxalin-2-yl)pentanoic acid] showed a pKi ([3H]PGD2 competition, Table B) of 7.70 to 8.68.
In turn, `O=C(O)CCCCc1nc2cc(C(=O)NCc3ccc(F)cc3)ccc2nc1-c1ccc(F)cc1` [compound 109, 3-(4-fluorophenyl)-7-[[[(4-fluorophenyl)methyl]amino]carbonyl]-2-quinoxalinepentanoic acid] gave a pKi under setting [1] of 7.70 to 8.68.
In the case of `O=C(O)CCCCc1nc2cc(C(=O)N[C@H]3CCOc4cc(F)ccc43)ccc2nc1-c1ccccc1` [compound 310, (S)-5-(7((7-fluorochroman-4-yl)carbamoyl)-3-phenylquinoxalin-2-yl)pentanoic acid], the pKi ([3H]PGD2 competition, Table B) is 7.70 to 8.68.
Regarding `O=C(O)CCCCc1nc2cc(C(=O)N3CC[C@@H](c4ccccc4)C3)c(F)cc2nc1-c1ccc(Cl)cc1` [compound 24, 3-(4-chlorophenyl)-6-fluoro-7-[(3(S)-phenyl-1-pyrrolidinyl)carbonyl]-2-quinoxalinepentanoic acid], the pKi under setting [1] is 7.70 to 8.68.
As to `O=C(O)CCCCc1nc2cc(C(=O)N3CCO[C@H](c4ccc(C(F)(F)F)cc4)C3)ccc2nc1-c1ccc(Cl)cc1` [compound 616, (R)-5-(3-(4-chlorophenyl)-7-(2-(4-(trifluoromethyl)phenyl)morpholine-4-carbonyl)quinoxalin-2-yl)pentanoic acid], the pKi ([3H]PGD2 competition, Table B) was 6.70 to 7.70.
`O=C(O)CCCCc1nc2cc(C(=O)NC3CCc4ccccc43)ccc2nc1-c1ccccc1` (stereo not shown) [15AT, 5-[7-(2,3-dihydro-1H-inden-1-ylcarbamoyl)-3-phenylquinoxalin-2-yl]pentanoic acid]: the pKi under setting [1] was 8.70 to 10.00.
On to `C[C@@H](NC(=O)c1ccc2nc(-c3ccccc3)c(CCCCC(=O)O)nc2c1)c1ccccc1` [15A, 5-(3-phenyl-7-{[(1R)-1-phenylethyl]carbamoyl}quinoxalin-2-yl) pentanoic acid], for which the pKi under setting [1] was 7.70 to 8.68.
`O=C(O)CCCCc1nc2cc(C(=O)N3CCN(c4ccc(Cl)cn4)CC3)ccc2nc1-c1ccc(Cl)cc1` [compound 669, 5-(3-(4-chlorophenyl)-7-(4-(5-chloropyridin-2-yl)piperazine-1-carbonyl)quinoxalin-2-yl)pentanoic acid] gave a negative logarithm of the Ki (pKi) ([3H]PGD2 competition, Table B) of 7.70 to 8.68.
Turning to `CN1CCN(C(=O)c2ccc3nc(-c4ccc(Cl)cc4)c(CCCCC(=O)O)nc3c2)C(c2ccccc2)C1` (stereo not shown) [compound 666, 5-(3-(4-chlorophenyl)-7-(4-methyl-2-phenylpiperazine-1-carbonyl)quinoxalin-2-yl)pentanoic acid], where the note is “[3H]PGD2 competition, Table B”, the pKi is 7.70 to 8.68.
Same read-out and setting: under `O=C(O)CCCCc1nc2cc(C(=O)N3CCO[C@@H](c4ccc(C(F)(F)F)cc4)C3)ccc2nc1-c1ccc(Cl)cc1` [compound 615, (S)-5-(3-(4-chlorophenyl)-7-(2-(4-(trifluoromethyl)phenyl)morpholine-4-carbonyl)quinoxalin-2-yl)pentanoic acid] stands 7.70 to 8.68; under `Cc1cc(N2CCN(C(=O)c3ccc4nc(-c5ccc(Cl)cc5)c(CCCCC(=O)O)nc4c3)CC2)cc(C)n1` [compound 703, 5-(3-(4-chlorophenyl)-7-(4-(2,6-dimethylpyridin-4-yl)piperazine-1-carbonyl)quinoxalin-2-yl)pentanoic acid], 6.15 to 6.70.
The compound `O=C(O)CCCCc1nc2cc(C(=O)N[C@@H](c3ccccc3)C(F)(F)F)ccc2nc1-c1ccc(F)cc1` [compound 102, 3-(4-fluorophenyl)-7-[[(2,2,2-trifluoro-1(S)-phenylethyl)amino]carbonyl]-2-quinoxalinepentanoic acid] showed a pKi under setting [1] of 7.70 to 8.68.
As for `O=C(O)CCCCc1nc2cc(C(=O)N3CCN(c4cnccn4)CC3)ccc2nc1-c1ccc(Cl)cc1` [compound 597, 5-(3-(4-chlorophenyl)-7-(4-(pyrazin-2-yl)piperazine-1-carbonyl)quinoxalin-2-yl)pentanoic acid], the pKi ([3H]PGD2 competition, Table B) was 7.70 to 8.68.
Compound `O=C(O)CCCCc1nc2cc(C(=O)N3CCC(c4ccccc4)C3)ccc2nc1-c1cc(Cl)cc(Cl)c1` (stereo not shown) [26G, 3-(3,5-dichlorophenyl)-7-[(3-phenyl-1-pyrrolidinyl)carbonyl]-2-quinoxalinepentanoic acid] had a pKi under setting [1] of 7.70 to 8.68.
Under setting [1], `C[C@H](c1ccc(F)cc1)N(C)C(=O)c1ccc2nc(-c3ccccc3)c(CCCCC(=O)O)nc2c1` [compound 236, 7-[[[1(R)-(4-fluorophenyl)ethyl]methylamino]carbonyl]-3-phenyl-2-quinoxalinepentanoic acid] gave a pKi of 7.70 to 8.68.
Consider `O=C(N[C@@H]1CCCc2cc(F)ccc21)c1ccc2nc(-c3ccccc3)c(CCCC(F)(F)C(=O)O)nc2c1` [compound 480, (R)-2,2-difluoro-5-(7-((6-fluoro-1,2,3,4-tetrahydronaphthalen-1-yl)carbamoyl)-3-phenylquinoxalin-2-yl)pentanoic acid], for which, under “[3H]PGD2 competition, Table B”, the pKi was 7.70 to 8.68.
On to `CC(C)[C@@H](NC(=O)c1ccc2nc(-c3ccc(Cl)cc3)c(CCCCC(=O)O)nc2c1)c1ccc(F)cc1` [compound 399, (R)-5-(3-(4-chlorophenyl)-7-((1-(4-fluorophenyl)-2-methylpropyl)carbamoyl)quinoxalin-2-yl) pentanoic acid], for which the pKi ([3H]PGD2 competition, Table B) is 7.70 to 8.68.
As for `O=C(N[C@@H]1CCCc2cc(F)ccc21)c1ccc2nc(-c3ccc(F)cc3)c(CC[C@H]3C[C@@H]3C(=O)O)nc2c1` [compound 261, (1S,2S)-2-(2-(7-(((R)-6-fluoro-1,2,3,4-tetrahydronaphthalen-1-yl)carbamoyl)-3-(4-fluorophenyl)quinoxalin-2-yl)ethyl)cyclopropane-carboxylic acid], under “[3H]PGD2 competition, Table B”, the pKi is 7.70 to 8.68.
